Measured values taken from ChEMBL document CHEMBL5634086, “Small molecule inhibitors of NLRP3 inflammasome and GSK-3β in the management of traumatic brain injury: A review” (Eur J Med Chem, 2023).

Experiments:
[1] = target: T1, Glycogen synthase kinase-3 beta (Homo sapiens, UniProt P49841); experiment: Inhibition of GST-tagged GSK3beta (unknown origin)
[2] = target: T1, Glycogen synthase kinase-3 beta; experiment: Inhibition of GSK3beta (unknown origin) expressed in Sf9 cells incubated for 30 mins in presence of [gamma32P]ATP by scintillation counting method
[3] = target: NACHT, LRR and PYD domains-containing protein 3 (Homo sapiens, UniProt Q96P20); experiment: Inhibition of NLRP3 inflammasome in LPS-induced […] cells assessed as reduction in IL-1beta release preincubated for 1 hr followed by ATP addition and measured after 30 mins by ELISA; type: cell-based
NACHT, LRR and PYD domains-containing protein 3, sequence (Q96P20 whole entry, the tested form may be a part): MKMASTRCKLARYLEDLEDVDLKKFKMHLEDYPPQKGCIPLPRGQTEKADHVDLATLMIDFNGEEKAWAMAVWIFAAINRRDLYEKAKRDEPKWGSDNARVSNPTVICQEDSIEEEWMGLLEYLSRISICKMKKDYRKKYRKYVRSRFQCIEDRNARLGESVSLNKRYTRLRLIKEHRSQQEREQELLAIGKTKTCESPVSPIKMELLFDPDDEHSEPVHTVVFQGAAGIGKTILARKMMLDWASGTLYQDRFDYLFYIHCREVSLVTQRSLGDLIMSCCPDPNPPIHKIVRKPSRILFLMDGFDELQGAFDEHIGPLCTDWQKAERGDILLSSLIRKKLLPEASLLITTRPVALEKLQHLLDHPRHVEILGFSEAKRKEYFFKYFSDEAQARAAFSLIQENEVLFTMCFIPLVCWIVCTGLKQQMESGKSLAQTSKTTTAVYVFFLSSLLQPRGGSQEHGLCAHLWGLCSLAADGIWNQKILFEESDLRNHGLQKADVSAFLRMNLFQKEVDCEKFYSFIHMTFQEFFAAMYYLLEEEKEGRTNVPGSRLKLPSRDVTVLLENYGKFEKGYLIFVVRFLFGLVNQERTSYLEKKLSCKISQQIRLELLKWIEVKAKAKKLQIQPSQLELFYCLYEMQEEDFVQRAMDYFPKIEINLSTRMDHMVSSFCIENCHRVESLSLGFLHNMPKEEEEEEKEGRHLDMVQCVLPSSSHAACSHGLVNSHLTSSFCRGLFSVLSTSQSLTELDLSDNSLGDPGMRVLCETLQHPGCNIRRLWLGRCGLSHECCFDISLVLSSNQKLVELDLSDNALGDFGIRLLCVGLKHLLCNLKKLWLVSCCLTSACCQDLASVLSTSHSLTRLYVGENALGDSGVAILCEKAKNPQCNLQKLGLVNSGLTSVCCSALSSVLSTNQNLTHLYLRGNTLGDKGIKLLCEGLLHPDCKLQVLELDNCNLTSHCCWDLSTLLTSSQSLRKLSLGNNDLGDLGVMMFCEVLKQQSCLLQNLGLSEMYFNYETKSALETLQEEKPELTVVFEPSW

[4] = Inhibition of LPS/ATP induced IL-1beta release in human THP-1 cells at 10 uM pretreated with LPS for 3 hrs followed by compound addition for 1 hr prior to ATP addition for another 1 hr by ELISA; type: functional; parameters: scale not given: the % may be the effect or the level left; conditions: time 2 hrs

T1 sequence (P49841 whole entry): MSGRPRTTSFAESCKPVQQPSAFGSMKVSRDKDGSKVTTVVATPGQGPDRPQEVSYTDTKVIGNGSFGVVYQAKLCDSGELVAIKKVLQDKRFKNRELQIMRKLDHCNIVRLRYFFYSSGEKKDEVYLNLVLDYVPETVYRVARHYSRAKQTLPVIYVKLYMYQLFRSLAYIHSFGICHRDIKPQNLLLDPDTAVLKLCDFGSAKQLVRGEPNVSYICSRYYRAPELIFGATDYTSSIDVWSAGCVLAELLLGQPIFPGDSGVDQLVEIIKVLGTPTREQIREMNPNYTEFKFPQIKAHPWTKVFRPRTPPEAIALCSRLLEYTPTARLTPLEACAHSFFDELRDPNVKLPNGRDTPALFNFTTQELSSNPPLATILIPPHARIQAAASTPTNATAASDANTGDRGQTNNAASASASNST

Q: With `O=C1Cc2c([nH]c3ccc([N+](=O)[O-])cc23)-c2ncccc2N1` as the compound, how does the IC50 [1] read?
A: 4 nM

Q: And the IC50 [2]?
A: 4 nM

Q: For `O=c1[nH]c(-c2ccc([N+](=O)[O-])cc2)nc2ccccc12`, which IC50 [3] is on record?
A: 5000 nM

Q: With `c1cc2[nH]c(-c3cscn3)nc2cn1` as the compound, how does the Activity [4] read?
A: 30%
